Here are results for 10 compounds from US11377442B2, “Small molecule agonists and antagonists of NR2F6 activity” (ZANDER THERAPEUTICS, INC., priority 2016, dated 2022).

The structures appear in SMILES notation. Like-named read-outs stand apart in the source and are kept apart here.

Holding throughout (assay type): cell-based
The target of experiment [1] is T1, ERα (Homo sapiens, UniProt P03372).
T1 construct: expressed in transfected cells
T1 sequence (P03372 1-595): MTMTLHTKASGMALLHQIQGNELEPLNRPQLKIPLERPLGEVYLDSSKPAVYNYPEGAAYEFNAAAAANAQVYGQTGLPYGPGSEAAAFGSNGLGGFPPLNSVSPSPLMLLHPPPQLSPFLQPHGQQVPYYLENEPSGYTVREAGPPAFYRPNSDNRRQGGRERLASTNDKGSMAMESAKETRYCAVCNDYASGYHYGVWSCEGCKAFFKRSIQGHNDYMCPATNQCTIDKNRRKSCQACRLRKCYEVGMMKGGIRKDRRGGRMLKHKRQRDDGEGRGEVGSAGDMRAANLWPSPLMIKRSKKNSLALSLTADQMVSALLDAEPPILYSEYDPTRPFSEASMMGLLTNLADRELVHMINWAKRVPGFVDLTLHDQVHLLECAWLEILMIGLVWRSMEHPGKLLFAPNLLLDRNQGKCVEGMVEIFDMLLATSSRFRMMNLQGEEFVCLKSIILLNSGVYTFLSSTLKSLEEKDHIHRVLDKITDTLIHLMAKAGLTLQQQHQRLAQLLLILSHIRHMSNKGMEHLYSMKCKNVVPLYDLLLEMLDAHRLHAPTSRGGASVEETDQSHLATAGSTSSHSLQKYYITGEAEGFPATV
The experiment can be described thus: Counterscreening, Firefly signal with ERα transient transfection (Firefly_ERa). For orientation: Counterscreens check selectivity or assay interference.

In experiment [2] the test system is Renilla_ERa. The experiment can be described thus: Renilla signal in ERα counterscreen (Renilla_ERa). The following applies: for fold induction at 2 µM / fold induction at 10 µM / fold induction at 40 µM: read-out: Renilla ERalpha transient, cmpd/DMSO (mean).
The target in experiment [3] is T1, ERα. Kind of experiment: Counterscreening, Firefly signal with ERα transient transfection (Firefly_ERa). The following applies: 10 uM. As to the method: The methodology for screening candidate compounds as NR2F6 agonists was as follows: For primary screening, hit criteria was ACT %>DMSO control+5*SD (DSO control) at 10 μM, or any compound with S/B>2. For rescreening, hit criteria was ACT %>DMSO control+3*SD (DSO control) in each replicate at 10 μM. For counterscreening, hit criteria was mean ACT<DMSO control+3*SD (DMSO control) with ERα transient transfection in duplicate at 10 μM.

Experiment [4] deals with T2, NR2F6 (Homo sapiens, UniProt P10588).
T2 construct: expressed in transfected cells; also transient transfection
T2 sequence (P10588 1-404): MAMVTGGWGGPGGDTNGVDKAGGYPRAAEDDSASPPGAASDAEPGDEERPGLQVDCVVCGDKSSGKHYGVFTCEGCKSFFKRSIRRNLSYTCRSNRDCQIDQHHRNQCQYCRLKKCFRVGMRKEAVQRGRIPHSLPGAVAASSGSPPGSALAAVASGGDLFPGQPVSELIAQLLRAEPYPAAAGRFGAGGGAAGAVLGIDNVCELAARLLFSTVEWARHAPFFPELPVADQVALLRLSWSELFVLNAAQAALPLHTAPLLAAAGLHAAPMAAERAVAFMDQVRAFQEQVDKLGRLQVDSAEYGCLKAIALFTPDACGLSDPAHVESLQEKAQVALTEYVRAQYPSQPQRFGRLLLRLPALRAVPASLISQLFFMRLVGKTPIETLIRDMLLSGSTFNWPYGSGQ
Kind of experiment: NR2F6 agonist screening, Firefly signal cmpd/DMSO.

Experiment [5] concerns Renilla. Kind of experiment: Renilla signal in NR2F6 agonist screening, cmpd/DMSO. The following applies: for fold induction at 2 µM / fold induction at 10 µM / fold induction at 40 µM: Renilla, read-out: Renilla F4, cmpd/DMSO (mean).

As to `O=c1cccc2n1CCN(c1nc(NCC3CCCO3)nc(N3CCCC3)n1)C2` (stereo not drawn) [Compound 42], the “Firefly ERalpha transient, cmpd/DMSO (mean)” value in experiment [1] (2 uM) turned out to be 2.3; in experiment [1] (40 uM) it was 1.0; in experiment [3], 1.0. Further, the “Renilla ERalpha transient, cmpd/DMSO (mean)” value in experiment [2] (2 uM) is on record as 0.9; in experiment [2] (10 uM) it was 1.0; in experiment [2] (40 uM), 1.0. In addition, the “Firefly F4, cmpd/DMSO (mean)” value in experiment [4] (2 uM, clone F4) turned out to be 1.6; in experiment [4] (10 uM, clone F4), 0.8; in experiment [4] (40 uM, clone F4) it was 0.9. Besides, the “Renilla F4, cmpd/DMSO (mean)” value in experiment [5] (2 uM, clone F4) worked out at 0.7; in experiment [5] (10 uM, clone F4) it was 0.8; in experiment [5] (40 uM, clone F4), 1.1.
Turning to `COc1nc(NCCC2=CCCCC2)nc(N2CC3CC(C2)c2cccc(=O)n2C3)n1` (stereo not drawn) [Compound 38], the “Firefly ERalpha transient, cmpd/DMSO (mean)” value in experiment [1] (2 uM) is on record as 0.8; in experiment [1] (40 uM), 0.5; in experiment [3], 0.9. Also, the fold induction at 2 µM in experiment [2] (2 uM) stood at 1.2; in experiment [5] (2 uM, clone F4) it was 1.1. Further, the fold induction at 10 µM in experiment [2] (10 uM) stood at 1.1; in experiment [5] (10 uM, clone F4), 1.1. The fold induction at 40 µM in experiment [2] (40 uM) is 1.1; in experiment [5] (40 uM, clone F4) it was 1.3. Further, the “Firefly F4, cmpd/DMSO (mean)” value in experiment [4] (2 uM, clone F4) was determined as 1.2; in experiment [4] (10 uM, clone F4), 0.8; in experiment [4] (40 uM, clone F4), 0.7.
In the case of `COc1ccc2nc(C(F)(F)F)c(C#N)c(N3CCN(C)CC3)c2c1` [Compound Z41], the “Firefly ERalpha transient, cmpd/DMSO (mean)” value in experiment [1] (2 uM) is listed as 0.9; in experiment [1] (40 uM), 1.6; in experiment [3] it was 1.4. Besides, the fold induction at 2 µM in experiment [2] (2 uM) came to 1; in experiment [5] (2 uM, clone F4), 0.7. Also, the fold induction at 10 µM in experiment [2] (10 uM) is 1.1; in experiment [5] (10 uM, clone F4), 0.6. Besides, the fold induction at 40 µM amounted to 0.8 in experiment [2] (40 uM) and 0.6 in experiment [5] (40 uM, clone F4). Also, the “Firefly F4, cmpd/DMSO (mean)” value is recorded as 1.0 in experiment [4] (2 uM, clone F4); 1.1 in experiment [4] (10 uM, clone F4); 1.7 in experiment [4] (40 uM, clone F4).
On to `Cc1cc(C)nc(Nc2nc(-c3ccccc3)c(CC(=O)O)s2)n1` [Compound 29], for which the “Firefly ERalpha transient, cmpd/DMSO (mean)” value was 1.2 in experiment [1] (2 uM), 2.2 in experiment [1] (40 uM) and 1.7 in experiment [3]. Also, the fold induction at 2 µM was determined as 1.1 in experiment [2] (2 uM) and 0.8 in experiment [5] (2 uM, clone F4). The fold induction at 10 µM in experiment [2] (10 uM) was found to be 1; in experiment [5] (10 uM, clone F4), 0.9. In addition, the fold induction at 40 µM came out at 1.1 in experiment [2] (40 uM) and 0.8 in experiment [5] (40 uM, clone F4). In addition, the “Firefly F4, cmpd/DMSO (mean)” value is 0.9 in experiment [4] (2 uM, clone F4); 1.4 in experiment [4] (10 uM, clone F4); 1.5 in experiment [4] (40 uM, clone F4).
On to `O=C(O)c1ccc(-n2ncc(Cl)c(Cl)c2=O)cc1` [Compound 44], for which the “Firefly ERalpha transient, cmpd/DMSO (mean)” value came out at 1.5 in experiment [1] (2 uM), 0.5 in experiment [1] (40 uM) and 1.3 in experiment [3]. The fold induction at 2 µM in experiment [2] (2 uM) came to 1.3; in experiment [5] (2 uM, clone F4), 1.1. For the same compound, the fold induction at 10 µM in experiment [2] (10 uM) was determined as 1.2; in experiment [5] (10 uM, clone F4), 1.1. Moreover, the fold induction at 40 µM in experiment [2] (40 uM) came to 0.3; in experiment [5] (40 uM, clone F4), 0.3. Besides, the “Firefly F4, cmpd/DMSO (mean)” value is given as 1.3 in experiment [4] (2 uM, clone F4); 1.5 in experiment [4] (10 uM, clone F4); 0.7 in experiment [4] (40 uM, clone F4).
As to `Cc1cc(C)c2ncc(C(=O)OC(C)C)c(NCCCN(C)C)c2c1` [Compound Z29], the figures for the “Firefly ERalpha transient, cmpd/DMSO (mean)” value in experiment [1] (2 uM), in experiment [1] (40 uM) and in experiment [3] were 1.0, 6.7 and 1.2, respectively. Moreover, the fold induction at 2 µM in experiment [2] (2 uM) turned out to be 0.8; in experiment [5] (2 uM, clone F4) it was 0.8. Besides, the fold induction at 10 µM in experiment [2] (10 uM) was determined as 1.2; in experiment [5] (10 uM, clone F4), 0.9. Besides, the fold induction at 40 µM worked out at 0.7 in experiment [2] (40 uM) and 0.5 in experiment [5] (40 uM, clone F4). Besides, the “Firefly F4, cmpd/DMSO (mean)” value in experiment [4] (2 uM, clone F4) is given as 1.3; in experiment [4] (10 uM, clone F4) it was 1.1; in experiment [4] (40 uM, clone F4), 1.1.
As for `Cc1ccc(CCCNc2c(C#N)c(C(F)(F)F)nc3ccc(Oc4ccccc4)cc23)cc1` [Compound Z42], the “Firefly ERalpha transient, cmpd/DMSO (mean)” value in experiment [1] (2 uM) turned out to be 1.5; in experiment [1] (40 uM), 1.1; in experiment [3], 1.8. Further, the fold induction at 2 µM was determined as 1.1 in experiment [2] (2 uM) and 1.2 in experiment [5] (2 uM, clone F4). The fold induction at 10 µM in experiment [2] (10 uM) stood at 0.9; in experiment [5] (10 uM, clone F4), 0.9. Also, the fold induction at 40 µM in experiment [2] (40 uM) amounted to 0.7; in experiment [5] (40 uM, clone F4), 0.7. Further, the “Firefly F4, cmpd/DMSO (mean)” value turned out to be 0.9 in experiment [4] (2 uM, clone F4); 0.9 in experiment [4] (10 uM, clone F4); 0.6 in experiment [4] (40 uM, clone F4).
Regarding `COc1ccc(-c2noc(Cn3ncc4ccccc4c3=O)n2)cc1` [Compound Z7], the “Firefly ERalpha transient, cmpd/DMSO (mean)” value was found to be 1.3 in experiment [1] (Table 15, 2 uM); 1.5 in experiment [1] (Table 15, 40 uM); 2.0 in experiment [3] (Table 15). In addition, the fold induction at 2 µM in experiment [2] (Table 15, 2 uM) came out at 1.1; in experiment [5] (Table 15, 2 uM), 1.3. Besides, the fold induction at 10 µM in experiment [2] (Table 15, 10 uM) stood at 1.1; in experiment [5] (Table 15, 10 uM), 1.1. The fold induction at 40 µM was 1 in experiment [2] (Table 15, 40 uM) and 1.1 in experiment [5] (Table 15, 40 uM). Also, the “Firefly F4, cmpd/DMSO (mean)” value in experiment [4] (Table 15, 2 uM) is 0.9; in experiment [4] (Table 15, 10 uM) it was 1.2; in experiment [4] (Table 15, 40 uM), 1.0.
On to `Cc1cc(C)c2ncc(C(=O)N(C)C)c(NCCCN(C)C)c2c1` [Compound Z31], for which the “Firefly ERalpha transient, cmpd/DMSO (mean)” value in experiment [1] (2 uM) is reported as 0.9; in experiment [1] (40 uM) it was 1.3; in experiment [3] it was 1.6. Also, the fold induction at 2 µM was 1 in experiment [2] (2 uM) and 1.1 in experiment [5] (2 uM, clone F4). In addition, the fold induction at 10 µM in experiment [2] (10 uM) worked out at 1; in experiment [5] (10 uM, clone F4), 1. Besides, the fold induction at 40 µM in experiment [2] (40 uM) was 1; in experiment [5] (40 uM, clone F4), 1. Moreover, the “Firefly F4, cmpd/DMSO (mean)” value was 0.8 in experiment [4] (2 uM, clone F4); 0.9 in experiment [4] (10 uM, clone F4); 1.1 in experiment [4] (40 uM, clone F4).
As to `Cc1cc(-c2ccccc2)nc(Nc2nc(-c3ccccc3)c(CC(=O)O)s2)n1` [Compound 30], the “Firefly ERalpha transient, cmpd/DMSO (mean)” value was 1.1 in experiment [1] (2 uM), 1.3 in experiment [1] (40 uM) and 1.5 in experiment [3]. For the same compound, the fold induction at 2 µM in experiment [2] (2 uM) was 1.2; in experiment [5] (2 uM, clone F4) it was 1.2. Further, the fold induction at 10 µM stood at 1.2 in experiment [2] (10 uM) and 2.3 in experiment [5] (10 uM, clone F4). Moreover, the fold induction at 40 µM in experiment [2] (40 uM) amounted to 1; in experiment [5] (40 uM, clone F4) it was 3.4. Besides, the “Firefly F4, cmpd/DMSO (mean)” value in experiment [4] (2 uM, clone F4) came out at 1.5; in experiment [4] (10 uM, clone F4) it was 1.6; in experiment [4] (40 uM, clone F4) it was 1.8.
